Results published in US11534457B2, “Use of dextran sulfate” (priority 2017, dated 2022).

Test system: closed-head diffuse severe TBI (sTBI)
Assay: sTBI in rats, dose study, HPLC of free amino acids and amino group containing compounds (Example 7)
Type: in vivo, Male Wistar rats
[1] = 1 mg/kg s.c. single, 30 min post-sTBI, sacrifice 2 days
[2] = 5 mg/kg s.c. single, 30 min post-sTBI, sacrifice 2 days
[3] = 15 mg/kg s.c. single, 30 min post-sTBI, sacrifice 2 days
[4] = rats, 7 days post-sTBI, repeated administration of 15 mg/kg b.w.
[5] = rats, 7 days post-sTBI, single administration of 1 mg/kg b.w.
[6] = rats, 7 days post-sTBI, single administration of 5 mg/kg b.w.
[7] = rats, 7 days post-sTBI, single administration of 15 mg/kg b.w.

## low molecular weight dextran sulfate [LMW-DS]
[1]
  GLN, brain concentration: 4.37 ± 0.59 nmol/g w.w.
  LYS, brain concentration: 0.29 ± 0.11 nmol/g w.w.
  ORN, brain concentration: 0.02 ± 0.01 nmol/g w.w.
  THR, brain concentration: 0.70 ± 0.15 nmol/g w.w.
  VAL, brain concentration: 0.07 ± 0.03 nmol/g w.w.
[2]
  ORN, brain concentration: 0.01 ± 0.01 nmol/g w.w.
  THR, brain concentration: 0.77 ± 0.17 nmol/g w.w.
  VAL, brain concentration: 0.08 ± 0.03 nmol/g w.w.
[3]
  GLN, brain concentration: 4.21 ± 0.51 nmol/g w.w.
  LEU, brain concentration: 0.04 ± 0.01 nmol/g w.w.
  ORN, brain concentration: 0.02 ± 0.01 nmol/g w.w.
  VAL, brain concentration: 0.06 ± 0.03 nmol/g w.w.
2 days post sTBI
  isoleucine (ILE): restored
  osmolyte and aromatic free amino acids: No remarkable effects
2 days post sTBI, 15 mg/kg b.w.
  free amino acids involved in NO generation (ARG, CITR): particularly effective
2 days post sTBI, 5 or 15 mg/kg b.w.
  free amino acids involved in neurotransmission: partly effective
2 days post sTBI, any dose tested
  methionine: Restoration
7 days post sTBI
  TAU concentrations: normalized
  aromatic amino acids: caused the increase
7 days post sTBI, 15 mg/kg b.w. single or repeat
  GLU: normalization
7 days post sTBI, 5 or 15 mg/kg b.w. (single and repeat)
  free amino acids involved in NO generation (ARG, CITR): particularly effective
7 days post sTBI, highest dose
  L-Cystathionine (L-Cystat): significant increase
7 days post sTBI, highest dose, single or repeat
  MET: Increase
[4]
  ALA concentration in deproteinized brain homogenates: 0.47 ± 0.05 nmol/g w.w.
  ASN concentration in deproteinized brain homogenates: 0.10 ± 0.02 nmol/g w.w.
  CITR concentration in deproteinized brain homogenates: 0.03 ± 0.01 nmol/g w.w.
  GLN concentration in deproteinized brain homogenates: 3.88 ± 0.4 µmol/g w.w.
  HYS concentration in deproteinized brain homogenates: 0.06 ± 0.01 nmol/g w.w.
  ILE concentration in deproteinized brain homogenates: 0.03 ± 0.01 nmoL/g w.w.
  LEU concentration in deproteinized brain homogenates: 0.04 ± 0.01 nmoL/g w.w.
  LYS concentration in deproteinized brain homogenates: 0.23 ± 0.07 nmoL/g w.w.
  MET concentration in deproteinized brain homogenates: 0.05 ± 0.01 nmol/g w.w.
  THR concentration in deproteinized brain homogenates: 0.77 ± 0.14 nmol/g w.w.
  TYR concentration in deproteinized brain homogenates: 0.14 ± 0.02 nmol/g w.w.
  VAL concentration in deproteinized brain homogenates: 0.07 ± 0.01 nmoL/g w.w.
[5]
  ASN concentration in deproteinized brain homogenates: 0.10 ± 0.02 nmol/g w.w.
  CITR concentration in deproteinized brain homogenates: 0.03 ± 0.01 nmol/g w.w.
  GLN concentration in deproteinized brain homogenates: 4.1 ± 0.42 µmol/g w.w.
  HYS concentration in deproteinized brain homogenates: 0.06 ± 0.01 nmol/g w.w.
  LYS concentration in deproteinized brain homogenates: 0.19 ± 0.06 nmoL/g w.w.
  MET concentration in deproteinized brain homogenates: 0.03 ± 0.01 nmol/g w.w.
  TAU concentration in deproteinized brain homogenates: 4.02 ± 0.51 nmol/g w.w.
  THR concentration in deproteinized brain homogenates: 0.71 ± 0.12 nmol/g w.w.
  TYR concentration in deproteinized brain homogenates: 0.13 ± 0.02 nmol/g w.w.
[6]
  ASN concentration in deproteinized brain homogenates: 0.10 ± 0.02 nmol/g w.w.
  CITR concentration in deproteinized brain homogenates: 0.03 ± 0.01 nmol/g w.w.
  GLN concentration in deproteinized brain homogenates: 3.86 ± 0.4 µmol/g w.w.
  GLY concentration in deproteinized brain homogenates: 0.88 ± 0.15 nmol/g w.w.
  HYS concentration in deproteinized brain homogenates: 0.06 ± 0.01 nmol/g w.w.
  LYS concentration in deproteinized brain homogenates: 0.21 ± 0.04 nmoL/g w.w.
  MET concentration in deproteinized brain homogenates: 0.04 ± 0.01 nmol/g w.w.
  THR concentration in deproteinized brain homogenates: 0.71 ± 0.15 nmol/g w.w.
  TRP concentration in deproteinized brain homogenates: 0.02 ± 0.01 nmol/g w.w.
  TYR concentration in deproteinized brain homogenates: 0.13 ± 0.02 nmol/g w.w.
[7]
  ASN concentration in deproteinized brain homogenates: 0.10 ± 0.02 nmol/g w.w.
  CITR concentration in deproteinized brain homogenates: 0.03 ± 0.01 nmol/g w.w.
  GLN concentration in deproteinized brain homogenates: 3.73 ± 0.38 µmol/g w.w.
  HYS concentration in deproteinized brain homogenates: 0.06 ± 0.01 nmol/g w.w.
  LYS concentration in deproteinized brain homogenates: 0.21 ±0.05 nmoL/g w.w.
  MET concentration in deproteinized brain homogenates: 0.04 ± 0.01 nmol/g w.w.
  THR concentration in deproteinized brain homogenates: 0.72 ± 0.14 nmol/g w.w.
  TYR concentration in deproteinized brain homogenates: 0.14 ± 0.02 nmol/g w.w.
